Source: US20210283163A1, “COMPOSITIONS AND METHODS FOR THE TREATMENT OF ACUTE AND CHRONIC PRURITIS” (Duke University, priority 2018, published 2021)

Tests used:
mice [1] = assay: Evans blue extravasation, neurogenic inflammation in a hind paw; assay type: in vivo, mouse; conditions: intraplantar, 10 μL; capsaicin 1 mM, AITC 5 mM, miR-711 1 mM
Experimental: Evans Blue Extravasation. To examine neurogenic inflammation in a hind paw (Han et al., Neuron 2016, 92, 1279-1293), mice were anesthetized with 5% isoflurane. Evans blue (50 mg/kg body weight) was given intravenously 10 min before neurogenic irritant application. […] Evans blue was extracted from the tissues by incubation in 400 μL formamide at 37° C. for 48 hr. Evans blue was quantified by measuring the optical density of the formamide extract at 620 nm. Absorbance was normalized to per gram of tissue weight.

TRPV1 = target: T1, TRPV1 (Mus musculus, UniProt Q704Y3); assay: Whole-cell patch clamp in CHO cells transfected with mouse Trpv1 cDNA; assay type: cell-based; conditions: miR-711 10 μM; capsaicin 50 nM
T1 construct: expressed in transfected cells; host or cells: CHO cells (ATCC CRL-9096), plasmid pcDNA3.1-mTrpv1, a gift from Korea University
T1 sequence (Q704Y3 whole entry): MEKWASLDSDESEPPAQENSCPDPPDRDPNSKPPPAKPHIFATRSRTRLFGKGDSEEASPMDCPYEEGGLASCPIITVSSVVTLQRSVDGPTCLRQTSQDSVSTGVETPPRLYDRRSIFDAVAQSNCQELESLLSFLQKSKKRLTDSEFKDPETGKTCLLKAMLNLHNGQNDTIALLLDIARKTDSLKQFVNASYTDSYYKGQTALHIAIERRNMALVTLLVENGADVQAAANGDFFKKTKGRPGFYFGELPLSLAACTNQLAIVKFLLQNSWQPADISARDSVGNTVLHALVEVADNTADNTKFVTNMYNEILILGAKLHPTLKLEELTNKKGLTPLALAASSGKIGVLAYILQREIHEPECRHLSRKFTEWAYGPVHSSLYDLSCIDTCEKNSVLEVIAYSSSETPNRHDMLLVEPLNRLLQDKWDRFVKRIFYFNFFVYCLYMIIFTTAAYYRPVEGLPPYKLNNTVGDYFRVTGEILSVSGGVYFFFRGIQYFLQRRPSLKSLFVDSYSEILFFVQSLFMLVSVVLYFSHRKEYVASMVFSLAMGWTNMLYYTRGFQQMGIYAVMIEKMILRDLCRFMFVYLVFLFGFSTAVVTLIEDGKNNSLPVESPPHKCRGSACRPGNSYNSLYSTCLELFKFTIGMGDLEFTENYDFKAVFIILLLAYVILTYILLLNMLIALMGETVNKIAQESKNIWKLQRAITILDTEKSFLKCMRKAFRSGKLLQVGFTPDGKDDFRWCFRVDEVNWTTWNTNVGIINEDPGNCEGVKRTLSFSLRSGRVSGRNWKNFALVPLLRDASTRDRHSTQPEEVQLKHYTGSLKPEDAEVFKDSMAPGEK
Experimental: (§1) Constructs. The cDNAs of mouse pcDNA3.1-Trpa1, pcDNA3.1-Trpv1, pcDNA3.1-Trpv2, pcDNA3.1-Trpv3, and pcDNA3.1-Trpv4 were kindly provided Dr. Sun Work Hwang from Korea University. Mouse Trpa1 cDNA was subcloned into pCGN-HA backbone (Addgene) using In-Fusion HD Cloning Kit (Clontech Laboratories, CA). Q5 Site-Directed Mutagenesis Kit was used to generate mTrpa1 mutant (M1-M13) based on pCGN-mTrpa1.
(§2) Cell Culture and Transfection. CD4^+ Myla cell line was cultured in RPMI 1640 media (GIBCO), supplemented with 2 mM Glutamine (GIBCO), 100 U/mL IL-2 (Sigma), 100 U/mL IL-4 (Sigma), and 10% human AB serum (Sigma). HuT 102 cell line was cultured in RPMI 1640 supplemented with pyruvate, HEPES, and 10% (v/v) fetal bovine serum (HyClone). HEK293-hTRPA1 stable cell line was cultured in MEM (GIBCO) containing 2 mM Glutamine, 4 μg/mL Blasticidin, 10% FBS (v/v). B16 and CHO cells were cultured in high glucose (4.5 g/L) Dulbecco's Modified Eagle's Medium (GIBCO) containing 10% (v/v) fetal bovine serum (GIBCO). Culture media were supplemented with 50 units/mL of penicillin and 50 μg/mL streptomycin, and cultures were maintained with 5% CO2 in 37° C. incubator. Transfection (2 μg cDNA) was performed with Lipofectamine™ 2000 Reagent (Invitrogen) at 80% confluency and the transfected cells were cultured in the same media for 48 hr before electrophysiological and biochemical studies. […]

mice [2] = assay: Acute pruritus induced by intradermal pruritogens, effect of peptides; assay type: in vivo, mouse; conditions: peptide 2 mM, 15 μL intradermal; mmu-miR-711 1 mM, 10 μL
Experimental: (§3) Behavioral Assessment for Scratching (Itch) and Wiping (Pain). Mice were shaved on the cheek or nape after a brief anesthesia with isoflurane. Before experiments, mice were habituated in small plastic chambers (14×18×12 cm) daily for two days. The room temperature and humidity remained stable for all the experiments. […] After the injection, the number of scratches in 60 min was counted. A scratch was counted when a mouse lifted its hind paw to scratch the shaved region and returned the paw to the floor or to the mouth. A bout of wiping was defined as a continuous wiping movement with a forepaw directing at the area of the injection area (Shimada and LaMotte, Pain 2008, 139, 681-687). Scratching and wiping behavior was videoed for 30 min or 60 min using Sony HDR-CX610 camera. The video was subsequently played back offline and the numbers of scratches and wipes were quantified in a blinded manner.

hTRPA1 [3] = target: T2, hTRPA1 (Homo sapiens, UniProt O75762); assay: RNA pull-down assay and immunoblotting; assay type: binding; conditions: RNA pull-down
T2 sequence (O75762 whole entry): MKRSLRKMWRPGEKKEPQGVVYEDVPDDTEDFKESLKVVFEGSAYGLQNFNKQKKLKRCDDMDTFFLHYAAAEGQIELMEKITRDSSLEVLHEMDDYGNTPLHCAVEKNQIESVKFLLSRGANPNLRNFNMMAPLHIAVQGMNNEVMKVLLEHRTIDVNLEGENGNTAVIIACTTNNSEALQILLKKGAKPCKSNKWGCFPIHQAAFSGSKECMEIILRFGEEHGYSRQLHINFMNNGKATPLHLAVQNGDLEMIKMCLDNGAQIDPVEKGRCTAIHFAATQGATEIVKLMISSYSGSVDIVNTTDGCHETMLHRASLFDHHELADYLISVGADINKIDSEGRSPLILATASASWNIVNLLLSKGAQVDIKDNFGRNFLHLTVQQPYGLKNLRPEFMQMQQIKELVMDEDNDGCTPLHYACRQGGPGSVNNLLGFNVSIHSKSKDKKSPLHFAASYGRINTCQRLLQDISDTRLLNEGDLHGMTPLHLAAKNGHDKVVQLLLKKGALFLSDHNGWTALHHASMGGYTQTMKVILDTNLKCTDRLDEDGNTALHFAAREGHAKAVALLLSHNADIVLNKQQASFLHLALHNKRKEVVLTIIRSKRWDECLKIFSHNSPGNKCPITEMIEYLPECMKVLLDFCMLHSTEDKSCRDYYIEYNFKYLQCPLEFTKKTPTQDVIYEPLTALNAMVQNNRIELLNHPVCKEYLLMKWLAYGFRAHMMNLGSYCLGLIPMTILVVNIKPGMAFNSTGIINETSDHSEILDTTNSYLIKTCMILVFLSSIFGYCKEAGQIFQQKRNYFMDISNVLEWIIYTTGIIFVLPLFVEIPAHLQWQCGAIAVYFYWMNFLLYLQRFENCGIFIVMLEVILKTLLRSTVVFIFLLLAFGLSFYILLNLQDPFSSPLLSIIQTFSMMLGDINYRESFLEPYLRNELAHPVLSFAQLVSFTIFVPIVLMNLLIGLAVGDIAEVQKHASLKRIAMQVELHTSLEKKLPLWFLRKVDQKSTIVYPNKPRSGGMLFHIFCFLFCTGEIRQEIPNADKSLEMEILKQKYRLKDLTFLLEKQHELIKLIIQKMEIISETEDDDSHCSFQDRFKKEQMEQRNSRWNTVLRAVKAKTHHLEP
Experimental: RNA Pull-Down Assay and Immunoblotting. hTRPA1-expressing HEK293 cells of equal amount (5×10^6) were plated onto 60 mm dishes, and 24 hr later, these cells were incubated with biotin-conjugated miR-711 or miR-711 (m6) in extracellular solution containing 140 mM NaCl, 5 mM KCl, 2 mM CaCl2, 1 mM MgCl2, 10 mM HEPES, and 10 mM glucose, adjusted to pH 7.4 for 15 min at 37° C. with 5% CO2. For crosslinking, 1% formaldehyde (vol/vol) was added at 37° C. for 10 min, then 12.5% glycine was applied to stop crosslinking by 5 min incubation at room temperature. Then the cells were collected and sonicated with ultrosonic probe sonicator (80% output, 5 s on and 10 s off) in 1 mL lysis buffer (1% Triton X-100, 50 mM Tris-HCl, 150 mM NaCl, 5 mM EDTA, pH7.4) on ice for 2 min. We then centrifuged the lysate at 13,000 rpm for 10 min at 4° C. and took 50 μL supernatant as lysate control. The remaining supernatant was added 20 μL streptadvilin agrose beads and incubated overnight. The pellets were collected after centrifuge at 6000 rmp for 30 s. For competing assay, miR-711 (10-50 μM) or mutant miR-711 (m6, 10-50 μM) were added 15 min before the incubation with biotin-conjugated miR-711 (10 μM). For immunoblotting, the lysates or beads were incubated in SDS-PAGE loading buffer for 30 min at 50° C., and supernatant was collected after centrifugation at 13000 rpm and decrosslink at 99° C. for 20 min. The samples were separated on an SDS-PAGE gel, transferred, and probed with TRPA1 antibody (1:1000; Alomone labs). The immunoreactive bands were detected with horseradish peroxidase-conjugated secondary antibody, visualized with enhanced chemiluminescence (Thermo scientific, Pittsburgh, Pa.), and quantified with Image-Pro Plus software (Media Cybernetics, Bethesda, Md.). Each experiment was repeated at least three times.

hTRPA1 [4] = target: T2, hTRPA1; assay: Whole-cell patch clamp, inward currents in HEK293 cells expressing hTRPA1; assay type: cell-based; conditions: peptide 25 μM
Experimental: Cell Culture and Transfection. CD4^+ Myla cell line was cultured in RPMI 1640 media (GIBCO), supplemented with 2 mM Glutamine (GIBCO), 100 U/mL IL-2 (Sigma), 100 U/mL IL-4 (Sigma), and 10% human AB serum (Sigma). HuT 102 cell line was cultured in RPMI 1640 supplemented with pyruvate, HEPES, and 10% (v/v) fetal bovine serum (HyClone). HEK293-hTRPA1 stable cell line was cultured in MEM (GIBCO) containing 2 mM Glutamine, 4 μg/mL Blasticidin, 10% FBS (v/v). B16 and CHO cells were cultured in high glucose (4.5 g/L) Dulbecco's Modified Eagle's Medium (GIBCO) containing 10% (v/v) fetal bovine serum (GIBCO). Culture media were supplemented with 50 units/mL of penicillin and 50 μg/mL streptomycin, and cultures were maintained with 5% CO2 in 37° C. incubator. Transfection (2 μg cDNA) was performed with Lipofectamine™ 2000 Reagent (Invitrogen) at 80% confluency and the transfected cells were cultured in the same media for 48 hr before electrophysiological and biochemical studies.
Whole-Cell Patch Clamp Recordings in HEK293 Cells, CHO Cells, and DRG Neurons. Whole-cell patch clamp recordings were performed at room temperature using an Axopatch-200B amplifier (Axon Instruments) with a Digidata 1440B (Axon Instruments). In this study, we only examined small-diameter mouse DRG neurons (<25 μM) and small-diameter human DRG neurons (<55 μM). The patch pipettes were pulled from borosilicate capillaries (World Precision Instruments) using a P-97 Flaming/Brown micropipette puller (Sutter Instrument). Pipette resistance was 4-6 MΩ for whole-cell and outside-out recording. For inward current recordings in mouse and human DRG neurons, HEK293 cells, and CHO cells, the internal solution contains (in mM): 140 CsCl, 10 EGTA, 10 HEPES, and 2 Mg-ATP, adjusted to pH 7.3 with CsOH. Whole cell recordings were performed in an extracellular solution that contains (in mM): 140 NaCl, 5 KCl, 2 MgCl2, 10 HEPES, and 10 glucose, adjusted to pH 7.4 with NaOH and osmolarity to 300-310 mOsm. […] Action potential recordings were performed in small-diameter DRG neurons, with the following solutions: i) internal pipette solution contains: 126 mM K-gluconate, 10 mM NaCl, 1 mM MgCl2, 10 mM EGTA, 10 mM HEPES and 2 mM Na-ATP, adjusted to pH 7.4 with KOH and osmolarity to 295-300 mOsm), and ii) extracellular solution contains: 140 mM NaCl, 5 mM KCl, 2 mM MgCl2, 2 mM CaCl2, 10 mM HEPES, 10 mM glucose, adjusted to pH 7.4 with KOH.

mice [5] = assay: Persistent itch after intradermal adenovirus (AV) overexpression of hsa-miR-711; assay type: in vivo, mouse; conditions: 10 days after the AV injection, A-967079 50 μM, hsa-miR-711 inhibitor 100 μM, blocking peptide 2 μM
Experimental: as §3
miRNA Measurement by Quantitative Real-Time RT-PCR (qPCR). Total RNA was isolated from serum of CTCL mice or adenovirus-treated mice using Qiazol Lysis Reagent (QIAGEN) together with miRNeasy Serum/Plasma Kit (Park et al., Neuron 2014, 82, 47-54). All RNA samples were immediately used or kept at −80° C. until further processing. To convert mature miRNA into cDNA, 6 μl of total RNA solution were reverse transcribed using the miScript II RT Kit (including polyadenylation of miRNAs and reverse transcription using an oligo-dT that binds to a universal RT-sequence). Specific miRNA levels were quantified by qPCR using miScript SYBR Green Kit including miScript miRNA assay for hsa-miR-711, hsa-miR21, hsamiR155, and hsa-miR-326, together with the universal RT primer, according to the manufacturer's protocol (CFX96 Real-Time system, Bio-Rad). Relative quantities of miRNAs were calculated using the Ct value after normalization to control miRNAs. Caenorhabditis elegans miRNA-39 (cel-miRNA-39) was included as spiked-in control for extracellular miRNA.

CTCL mice = assay: Mouse CTCL xenograft model of chronic itch; assay type: in vivo; conditions: given 20 days after Myla cell inoculation; hsa-miR-711 inhibitor 100 μM, HC030031 200 μM, A967079 50 μM, peptides 2 mM
Experimental: Mouse CTCL Xenograft Model of Chronic Itch. We developed a murine xenograft model of cutaneous T cell lymphoma (CTCL) using immune-deficient mice (NOD.CB17-Prkdcscid, 8-10 weeks old, male). CD4^+ MyLa cell line was purchased from Sigma (Ca #95051032). The cell line was established from a plaque biopsy of a person with mycosis fungoides stage II by inclusion of IL-2 and IL-4 in the culture medium. CTCL was generated via intradermal injection of CD4^+ Myla cells (1×10^5 cells/μl, 100 μL) on the nape of the neck. Tumor growth was assessed for 40 days by measurements of tumor diameters.
as §3
Generation of Myla Stable Cell Line Expressing miR-711 Inhibitor. CD4^+ Myla cells were plated at a density of 2×10^5 cells/mL in 2 mL culture media in 6-well plates. For each well, 20 μL of the MISSION Lenti microRNA Inhibitor (hsa-miR-711) lentivirus (Sigma) with a titer of 2.6×10^7 Tu/mL were added. Cell mixtures were incubated at 37° C. for 48 hr, washed with PBS three times, and re-suspended in fresh culture media, and 24 hr later, 1 μg/mL puromycin was added to the cells to select stably transduced cell populations. We tried to grow and passage the cells as much as necessary (usually 3 days) and maintained selection pressure by keeping 1 μg/mL puromycin in the medium. After 4 weeks, a large number of the cells were killed; the remaining cells retained the expression of the plasmid, which stably integrates into the genome of the targeted cells. These cells were used for inoculation to generate the CTCL model for testing the effects of miR-711 inhibitor on chronic itch and tumor growth.

TRPV4 = target: T3, TRPV4 (Mus musculus, UniProt Q9EPK8); assay: Whole-cell patch clamp in CHO cells transfected with mouse Trpv4 cDNA; assay type: cell-based; conditions: miR-711 10 μM; GSK1016790A 1 μM
T3 construct: expressed in transfected cells; host or cells: CHO cells (ATCC CRL-9096), plasmid pcDNA3.1-mTrpv4, a gift from Korea University
T3 sequence (Q9EPK8 whole entry): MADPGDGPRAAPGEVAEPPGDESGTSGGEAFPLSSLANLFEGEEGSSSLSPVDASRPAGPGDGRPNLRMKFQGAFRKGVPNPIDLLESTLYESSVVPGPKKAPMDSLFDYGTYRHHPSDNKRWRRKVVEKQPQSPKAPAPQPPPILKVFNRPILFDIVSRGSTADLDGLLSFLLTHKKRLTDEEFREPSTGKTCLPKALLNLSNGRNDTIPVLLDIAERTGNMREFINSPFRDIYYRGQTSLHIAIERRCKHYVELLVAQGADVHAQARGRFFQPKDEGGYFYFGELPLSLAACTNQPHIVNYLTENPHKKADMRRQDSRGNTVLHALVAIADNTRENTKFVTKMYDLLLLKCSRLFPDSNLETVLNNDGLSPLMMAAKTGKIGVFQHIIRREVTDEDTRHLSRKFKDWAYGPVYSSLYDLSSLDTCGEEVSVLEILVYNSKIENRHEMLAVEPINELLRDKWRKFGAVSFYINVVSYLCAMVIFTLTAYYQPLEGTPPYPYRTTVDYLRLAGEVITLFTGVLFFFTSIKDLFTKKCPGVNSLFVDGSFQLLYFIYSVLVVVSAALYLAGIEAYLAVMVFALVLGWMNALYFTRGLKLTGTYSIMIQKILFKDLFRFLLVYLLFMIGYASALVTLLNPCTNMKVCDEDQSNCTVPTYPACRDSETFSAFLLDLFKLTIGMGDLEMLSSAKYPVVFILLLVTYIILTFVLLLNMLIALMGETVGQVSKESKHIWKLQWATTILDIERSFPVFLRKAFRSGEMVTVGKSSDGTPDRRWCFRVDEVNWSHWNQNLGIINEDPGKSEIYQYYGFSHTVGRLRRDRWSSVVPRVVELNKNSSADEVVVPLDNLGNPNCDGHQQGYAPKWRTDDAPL
Experimental: as §1, §2

TRPV2 = target: T4, TRPV2 (Mus musculus, UniProt Q9WTR1); assay: Whole-cell patch clamp in CHO cells transfected with mouse Trpv2 cDNA; assay type: cell-based; conditions: miR-711 10 μM; cannabidiol 100 μM
T4 construct: expressed in transfected cells; host or cells: CHO cells (ATCC CRL-9096), plasmid pcDNA3.1-mTrpv2, a gift from Korea University
T4 sequence (Q9WTR1 1-756): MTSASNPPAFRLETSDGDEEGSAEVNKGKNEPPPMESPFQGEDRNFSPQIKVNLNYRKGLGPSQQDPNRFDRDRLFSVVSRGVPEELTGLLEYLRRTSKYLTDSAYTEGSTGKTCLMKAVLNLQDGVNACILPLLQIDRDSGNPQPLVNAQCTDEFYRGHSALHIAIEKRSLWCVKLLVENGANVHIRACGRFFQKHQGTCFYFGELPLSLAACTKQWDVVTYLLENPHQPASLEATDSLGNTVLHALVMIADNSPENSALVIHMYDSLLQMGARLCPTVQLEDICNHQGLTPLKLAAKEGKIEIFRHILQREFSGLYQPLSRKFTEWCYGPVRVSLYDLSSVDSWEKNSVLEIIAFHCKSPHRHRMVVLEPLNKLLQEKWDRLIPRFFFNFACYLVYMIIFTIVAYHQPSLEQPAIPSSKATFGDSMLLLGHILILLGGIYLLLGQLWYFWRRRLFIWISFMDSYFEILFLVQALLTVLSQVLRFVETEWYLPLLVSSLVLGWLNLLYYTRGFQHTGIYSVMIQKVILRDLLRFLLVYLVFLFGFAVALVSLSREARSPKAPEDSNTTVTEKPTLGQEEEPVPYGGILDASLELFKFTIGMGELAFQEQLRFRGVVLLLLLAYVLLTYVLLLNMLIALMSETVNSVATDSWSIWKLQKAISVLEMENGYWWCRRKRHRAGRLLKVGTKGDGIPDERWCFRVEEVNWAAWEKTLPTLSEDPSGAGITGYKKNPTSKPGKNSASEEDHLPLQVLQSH
Experimental: as §1, §2

COc1cc(CNC(=O)CCCC/C=C/C(C)C)ccc1O [capsaicin]
neurogenic inflammation in hind paws (Evans blue test) (mice [1]): elicited robust neurogenic inflammation
inward currents (TRPV1): inward currents induced

NH2-FRNELAAAVATFGQL-COOH (H-FRNELAAAVATFGQL-OH) [mutated peptide]
effect on miR-711-induced pruritus (mice [2]): nor did this peptide inhibit
disruption of the miR-711/TRPA1 interaction (hTRPA1 [3]): Neither did this mutated peptide block
inhibition of miR-711-induced TRPA1 inward currents (hTRPA1 [4]): nor did this peptide inhibit

miR-711 inhibitor: hsa-miR-711 inhibitor with a complementary sequence to hsa-miR-711: cuuacgucucucccuggguccc (SEQ ID NO: 22) (CUUACGUCUCUCCCUGGGUCCC; listed as RNA, chemistry not given here)
effect on hsa-miR-711 AV-induced persistent itch (mice [5]): Inhibition
effect on CTCL-evoked chronic itch (CTCL mice): reduced chronic pruritus

CC(C)C[C@H](NC(=O)c1cc2ccccc2s1)C(=O)N1CCN(C(=O)[C@H](CO)NS(=O)(=O)c2ccc(Cl)cc2Cl)CC1 [GSK1016790A]
inward currents (TRPV4): inward currents induced

C=C(C)[C@@H]1CCC(C)=C[C@H]1c1c(O)cc(CCCCC)cc1O [cannabidiol]
inward currents (TRPV2): inward currents induced
